The data set is described as follows: RP, Waters ACQUITY UPLC HSS T3, 100 × 2.1 mm, 1.8 µm, 0.3 mL/min, estimated dead time 0.73 min; A: water + 0.1% formic acid, pH 3; B: methanol + 0.1% formic acid, pH 3; gradient (min/%B) 0/1 1/15 4/35 7/95 9/95 10/1 14/95. As to conditions: stereoisomer not certain.
With `CC(CCC(=O)NCC(=O)O)C1CCC2C3C(O)CC4CC(O)CCC4(C)C3CC(O)C12C` (configuration not stated) [sodium glycocholate hydrate], the LC retention time is 11 min.

As for `O=c1ccn(C2OC(CO)C(O)C2O)c(=O)[nH]1` (configuration not stated) [uridine], the LC retention time was 2.2 min. As to `CC(=O)C1CCC2C3CCC4=CC(=O)CCC4(C)C3CCC12C` (configuration not stated) [progesterone], the LC retention time is 10.1 min. `CC12CCC3c4ccc(O)cc4CCC3C1CCC2O` (configuration not stated) [estradiol]: the LC retention time is 19.7 min. Regarding `O=[N+]([O-])c1ccccc1O` [2-nitrophenol], the LC retention time was 8.45 min. On to `NC(Cc1c[nH]c2ccccc12)C(=O)O` (configuration not stated) [tryptophan], for which the LC retention time was 5.45 min. As to `Cc1cc2nc3c(=O)[nH]c(=O)nc-3n(CC(O)C(O)C(O)CO)c2cc1C` (configuration not stated) [riboflavin], the LC retention time was 7.22 min. Then `O=C1CC(C(=O)O)NC(=O)N1` [L-dihydroorotic acid], with 1.07 min; and `O=C(O)CC(O)(CC(=O)O)C(=O)O` [citric acid monohydrate], with 8.41 min. As to `CSCCC(N)C(=O)O` (configuration not stated) [methionine], the LC retention time is 1.21 min. As to `NC(Cc1ccccc1)C(=O)O` (configuration not stated) [phenylalanine], the LC retention time is 4.45 min. Regarding `CC(C)CC(N)C(=O)O` (configuration not stated) [leucine], the LC retention time was 2.53 min.

The values are drawn from the RepoRT retention time repository.
